Measurements from patent publication US5310745A, “Antiviral compounds” (priority 1992, dated 1994).
Where two headings read alike, the source gives them in different places.

Legend:
visna virus = assay: Plaque reduction assay, inhibition of visna virus in vitro; type: cell-based; set-up: key to Antiviral Activity: A: active compound; I: inactive compound; conditions: for Antiviral Activity: Table 1
From the text: Visna virus, a lentivirus genetically very similar to the AIDS virus, is pathogenic for sheep and goats. See Sonigo et al., Cell 42, 369-382 (1985); Haase, Nature 322, 130-136 (1986). Inhibition of visna virus replication in vitro as a useful model for human immunodeficiency virus (HIV) and its inhibition by test compounds has been described by Franket al., Antimicrobial Agents and Chemotherapy 31 (9), 1369-1374 (1987). The N-butyl derivative of 1,5-dideoxy-1,5-imino-D-glucitol, also referred to as n-butyl-deoxynojirimycin (N-Bu-DNJ), was used as a control standard for comparison with various novel compounds of this invention.
Various compounds as prepared above were tested for inhibition of visna virus in vitro in a plaque reduction assay as follows:
(§1) Sheep choroid plexus (SCP) cells were obtained from American Type Culture Collection (ATCC) catalogue number CRL 1700 and were routinely passaged in vitro in Dulbecco's Modified Eagles (DME) medium supplemented with 20% fetal bovine serum (FBS). SCP cells were passaged once per week at a 1:2 or 1:3 split ratio. Visna was titrated by plaque assay in six-well plates. Virus pools were stored at -70° C.
(§2) SCP cells were cultured in 6-well plates to confluence. Wells were washed two times with serum free Minimal Essential Medium (MEM) to remove FBS. 0.2 ml of virus was added per well in MEM supplemented with 4 mM glutamine and gentamycin. After 1 hour adsorption, the virus was aspirated from each well. The appropriate concentration of each compound in 5 ml of Medium 199 (M-199) supplemented With 2% lamb serum, 4 mM glutamine, 0.5% agarose and gentamycin was added to each well. Cultures were incubated at 37° C. in a humidified 5% CO2 incubator for 3-4 weeks. To terminate the test: cultures were fixed in 10% formalin, the agar removed, the monolayers stained with 1% crystal violet and plaques counted. Each compound concentration was run in triplicate. […] 0 is no toxicity observed while 4 is total lysing of the cell monolayer.

[1] = tested on: Sheep choroid plexus (SCP) cells; assay: Toxicity of compounds in control wells without virus, graded morphologically; type: cell-based; set-up: key: 0: no toxicity; 4: total cell lysates; conditions: 0 to 4 scale, Table 1
Protocol: as §1, §2

[2] = tested on: Sheep choroid plexus (SCP) cells; assay: as above; type: cell-based
Protocol: as §1, §2

HIV = conditions: cited from earlier work; for HIV inhibitory activity: disclosed in earlier patents/applications
[3] = tested on: Sheep choroid plexus (SCP) cells; assay: Toxicity of compounds in control wells without virus, graded morphologically; type: cell-based; set-up: key: 0: no toxicity observed; 4: total lysing of the cell monolayer; conditions: graded 0 to 4, Table 2
Protocol: as §1, §2

[4] = Pharmacokinetic and metabolism study, Rhesus monkey; type: in vivo; conditions: monkey, oral, plasma and urine
Protocol: The parent tetrabutyrate compound consequently serves as an antivirally effective and useful pro-drug of the latter compound to which it is metabolized in the gut. […] The parent pro-drug was not detected. […] The oral bioactivity of the metabolite compound, measured as [^14 C]-metabolite compound, was determined to be between 28% and 50% in the Rhesus monkey, depending on the vehicle used (e.g., 0.5% methyl cellulose and 0.1% polysorbate in water). […] The blood levels of the metabolite compound, measured as part of a long term SIV infected monkey efficacy study, following oral dosing (high dose 750 mg/kg, low dose 250 mg/kg, administered every eight hours) with the pro-drug, yielded mean trough (cmin) plasma blood levels of the metabolite compound at eight hours post dosing of approximately 10 μg/mL and 6.8 μg/mL for the high and low doses, respectively.

[5] = Visna-maedi virus, 0.001 mM, Table 2
[6] = Visna-maedi virus, 0.01 mM, Table 2
[7] = Visna-maedi virus, 0.1 mM, Table 2

## CC(=O)OC[C@@H]1[C@@H](OC(C)=O)[C@H](OC(C)=O)[C@@H](OC(C)=O)CN1C(=O)c1ccccc1 [Example 5, 1,5-(Benzoylimino)-1,5-dideoxy-D-glucitol, tetraacetate]
Visna virus; 0.1 mM
  Antiviral Activity: A
Visna virus; 0.5 mM
  Antiviral Activity: A
Visna virus; 1.0 mM
  Antiviral Activity: A
[1]; 0.1 mM
  Toxicity: 0
[1]; 0.5 mM
  Toxicity: 0
[1]; 1.0 mM
  Toxicity: 0

## CCCCCCCCCN1C[C@H](OC(C)=O)[C@@H](OC(C)=O)[C@H](OC(C)=O)[C@H]1COC(C)=O [Example 14, 1,5-(Nonylimino)-1,5-dideoxy-D-glucitol, tetraacetate]
Visna virus; 0.001 mM
  Antiviral Activity: A
Visna virus; 0.01 mM
  Antiviral Activity: A
Visna virus; 0.1 mM
  Antiviral Activity: A
Visna virus; 1.0 mM
  Antiviral Activity: Toxic
[2]; 0.1 mM, 0 to 4 scale, Table 1
  Toxicity: 2
[1]; 0.001 mM
  Toxicity: 0
[1]; 0.01 mM
  Toxicity: 0
[1]; 1.0 mM
  Toxicity: 4

## CCOC(=O)CC(=O)N1C[C@H](OC(C)=O)[C@@H](OC(C)=O)[C@H](OC(C)=O)[C@H]1COC(C)=O [Example 8, 1,5-(Ethylmalonylimino)-1,5-dideoxy-D-glucitol, tetraacetate]
Visna virus; 0.1 mM
  Antiviral Activity: A
Visna virus; 1.0 mM
  Antiviral Activity: A
[1]; 0.1 mM
  Toxicity: 0
[1]; 1.0 mM
  Toxicity: 0

## OC[C@H]1NC[C@H](O)[C@@H](O)[C@@H]1O [deoxynojirimycin, 1,5-dideoxy-1,5-imino-D-glucitol]
HIV
  HIV inhibitory activity: HIV inhibitory activity

## CC(=O)OC[C@@H]1[C@@H](OC(C)=O)[C@H](OC(C)=O)[C@@H](OC(C)=O)CN1C(=O)Cc1ccccc1 [Example 4, 1,5-(Phenylacetylimino)-1,5-dideoxy-D-glucitol-tetraacetate]
Visna virus; 0.5 mM
  Antiviral Activity: A
Visna virus; 1.0 mM
  Antiviral Activity: A
[1]; 0.5 mM
  Toxicity: 0
[1]; 1.0 mM
  Toxicity: 0

## CC(=O)OC[C@@H]1[C@@H](OC(C)=O)[C@H](OC(C)=O)[C@@H](OC(C)=O)CN1C(=O)CCc1ccccc1 [Example 20, 1,5-(Hydrocinnamoylimino)-1,5-dideoxy-D-glucitol, tetraacetate]
Visna virus; 0.01 mM
  Antiviral Activity: A
Visna virus; 0.1 mM
  Antiviral Activity: A
Visna virus; 1.0 mM
  Antiviral Activity: A
[2]; 0.1 mM, 0 to 4 scale, Table 1
  Toxicity: 1
[2]; 1.0 mM, 0 to 4 scale, Table 1
  Toxicity: 2
[1]; 0.01 mM
  Toxicity: 0

## CCCCN1C[C@H](OC(=O)CC)[C@@H](OC(=O)CC)[C@H](OC(=O)CC)[C@H]1COC(=O)CC [Example 17, 1,5-(Butylimino)-1,5-dideoxy-D-glucitol, tetrapropionate]
Visna virus; 0.01 mM
  Antiviral Activity: A
Visna virus; 0.1 mM
  Antiviral Activity: Toxic
[2]; 0.01 mM, 0 to 4 scale, Table 1
  Toxicity: 2
[1]; 0.1 mM
  Toxicity: 4

## Cc1cn([C@H]2C[C@H](N=[N+]=[N-])[C@@H](CO)O2)c(=O)[nH]c1=O [AZT, 3'-azido-3'-deoxythymidine]
HIV; in vitro
  inhibition of virus replication in vitro: inhibit replication of the virus in vitro

## CCCCN1C[C@H](OC(C)=O)[C@@H](OC(C)=O)[C@@H]2O[C@H](c3ccccc3)OC[C@H]21 [Example 24, 1,5-(Butylimino)-1,5-dideoxy-4R,6-O-(phenylmethylene)-D-glucitol, diacetate]
Visna virus; 1.0 mM
  Antiviral Activity: A
[1]; 1.0 mM
  Toxicity: 0

## CCCCN1C[C@H](OC(=O)C(C)C)[C@@H](OC(=O)C(C)C)[C@H](OC(=O)C(C)C)[C@H]1COC(=O)C(C)C [Example 22, 1,5-(Butylimino)-1,5-dideoxy-D-glucitol, tetraisobutyrate]
Visna virus; 0.01 mM
  Antiviral Activity: A
Visna virus; 0.1 mM
  Antiviral Activity: A
Visna virus; 1.0 mM
  Antiviral Activity: A
[1]; 0.01 mM
  Toxicity: 0
[1]; 0.1 mM
  Toxicity: 0
[1]; 1.0 mM
  Toxicity: 0

## CCCCN1C[C@H](OC(C)=O)[C@@H](OC(C)=O)[C@H](OC(C)=O)[C@H]1COC(C)=O [Example 7, 1,5-(Butylimino)-1,5-dideoxy-D-glucitol, tetraacetate]
Visna virus; 0.1 mM
  Antiviral Activity: A
Visna virus; 0.5 mM
  Antiviral Activity: A
Visna virus; 1.0 mM
  Antiviral Activity: A
[1]; 0.1 mM
  Toxicity: 0
[1]; 0.5 mM
  Toxicity: 0
[1]; 1.0 mM
  Toxicity: 0

## CCCCN1C[C@H](OC(=O)c2ccccc2)[C@@H](OC(=O)c2ccccc2)[C@H](OC(=O)c2ccccc2)[C@H]1COC(=O)c1ccccc1 [Example 18, 1,5-(Butylimino)-1,5-dideoxy-D-glucitol, tetrabenzoate]
Visna virus; 0.1 mM
  Antiviral Activity: A
Visna virus; 1.0 mM
  Antiviral Activity: A
[2]; 0.1 mM, 0 to 4 scale, Table 1
  Toxicity: 1
[1]; 1.0 mM
  Toxicity: 0

## CCCCN1C[C@H](OC(=O)CCC)[C@@H](OC(=O)CCC)[C@H](O)[C@H]1CO [Example 38, 1,5-(Butylimino)-1,5-dideoxy-D-glucitol, 2,3-dibutyrate]
Visna virus; 1.0 mM, Table 2
  % Plaque Reduction: Toxic
Visna virus; [5]
  inhibition at 1 µM: 47%
Visna virus; [6]
  inhibition at 10 µM: 54%
Visna virus; [7]
  inhibition at 100 µM: 80%
[2]; 0.1 mM, graded 0 to 4, Table 2
  Toxicity: 2
[3]; 0.001 mM
  Toxicity: 0
[3]; 0.01 mM
  Toxicity: 0
[3]; 1.0 mM
  Toxicity: 4

## CCCCN1C[C@H](O)[C@@H](O)[C@H](O)[C@H]1CO [N-Bu-DNJ, 1,5-(Butylimino)-1,5-dideoxy-D-glucitol, reference compound]
Visna virus; 0.001 mM
  Antiviral Activity: I
Visna virus; 0.01 mM
  Antiviral Activity: I
Visna virus; 0.1 mM
  Antiviral Activity: A
Visna virus; 1.0 mM
  Antiviral Activity: A
[2]; 0.1 mM, 0 to 4 scale, Table 1
  Toxicity: 1
[2]; 1.0 mM, 0 to 4 scale, Table 1
  Toxicity: 2
[4]
  metabolic profiles of either radiolabeled compound (pro-drug, metabolite): the same in plasma and urine
HIV
  HIV inhibitory activity: HIV inhibitory activity
HIV; listed as N-butyl derivative of deoxynojirimycin
  HIV inhibitory activity: substantially more effective anti-HIV activity
[1]; 0.001 mM
  Toxicity: 0
[1]; 0.01 mM
  Toxicity: 0

## CCCCN1C[C@H](OC(=O)C(C)(C)C)[C@@H](OC(=O)C(C)(C)C)[C@H](OC(=O)C(C)(C)C)[C@H]1COC(=O)C(C)(C)C [Example 50A]
Visna virus; 1.0 mM, Table 2
  % Plaque Reduction: Toxic
Visna virus; [6]
  inhibition at 10 µM: 20%
Visna virus; [7]
  inhibition at 100 µM: 49%
[2]; 0.1 mM, graded 0 to 4, Table 2
  Toxicity: 1
[3]; 0.01 mM
  Toxicity: 0
[3]; 1.0 mM
  Toxicity: 4

## CC(C)C(=O)OC[C@@H]1[C@@H](OC(=O)C(C)C)[C@H](OC(=O)C(C)C)[C@@H](OC(=O)C(C)C)CN1C(=O)Cc1ccccc1 [Example 39, 1,5-(Phenylacetylimino)-1,5-dideoxy-D-glucitol, tetraisobutyrate]
Visna virus; [6]
  inhibition at 10 µM: 19%
Visna virus; [7]
  inhibition at 100 µM: 56%
Visna virus; Visna-maedi virus, 1.0 mM, Table 2
  inhibition at 1000 µM: 95%
[2]; 0.1 mM, graded 0 to 4, Table 2
  Toxicity: 1
[2]; 1.0 mM, graded 0 to 4, Table 2
  Toxicity: 3
[3]; 0.01 mM
  Toxicity: 0

## CC(=O)OC[C@H]1NC[C@H](OC(C)=O)[C@@H](OC(C)=O)[C@@H]1OC(C)=O [Example 3, 1,5-Dideoxy-1,5-imino-D-glucitol, tetraacetate]
Visna virus; 0.5 mM
  Antiviral Activity: A
Visna virus; 1.0 mM
  Antiviral Activity: A
[1]; 0.5 mM
  Toxicity: 0
[1]; 1.0 mM
  Toxicity: 0

## CC(=O)OC[C@@H]1[C@@H](OC(C)=O)[C@H](OC(C)=O)[C@@H](OC(C)=O)CN1C(=O)c1ccc(-c2ccccc2)cc1 [Example 53, 1,5-[([1,1'-biphenyl]-4-ylcarbonyl)imino]-1,5-dideoxy-D-glucitol, tetraacetate]
Visna virus; 1.0 mM, Table 2
  % Plaque Reduction: Toxic
Visna virus; [5]
  inhibition at 1 µM: 28%
Visna virus; [6]
  inhibition at 10 µM: 81%
Visna virus; [7]
  inhibition at 100 µM: 100%
[2]; 0.1 mM, graded 0 to 4, Table 2
  Toxicity: 2
[3]; 0.001 mM
  Toxicity: 0
[3]; 0.01 mM
  Toxicity: 0
[3]; 1.0 mM
  Toxicity: 4

## CN1C[C@H](O)[C@@H](O)[C@H](O)[C@H]1CO [Example 9, 1,5-(Methylimino)-1,5-dideoxy-D-glucitol]
HIV
  HIV inhibitory activity: HIV inhibitory activity

## CCCC(=O)OC[C@H]1NC[C@H](OC(=O)CCC)[C@@H](OC(=O)CCC)[C@@H]1OC(=O)CCC [Example 42, 1,5-Dideoxy-1,5-imino-D-glucitol, tetrabutyrate]
Visna virus; [5]
  inhibition at 1 µM: 31%
Visna virus; [6]
  inhibition at 10 µM: 13%
Visna virus; [7]
  inhibition at 100 µM: 97%
[2]; 0.01 mM, graded 0 to 4, Table 2
  Toxicity: 1
[2]; 0.1 mM, graded 0 to 4, Table 2
  Toxicity: 2
[3]; 0.001 mM
  Toxicity: 0
[3]; 1.0 mM
  Toxicity: 4
